Usually IC50 stands for the concentration at which inhibition is half-maximal.

The values that follow come from patent publication US11351130B2, “Prevention and reversal of inflammation induced DNA damage” (Indiana University Research and Technology Corporation, priority 2017, dated 2022).

Experiment [1] relates to NFκB. Put plainly: NF-κB luciferase reporter transactivation assay. Conditions: read-out: inhibition of NFκB binding to the reporter construct, IC50. The format is cell-based. The method, then:
Reporter assays were performed as previously described (Georgiadis et al., 2008; Kelley et al., 2011; Cardoso et al., 2012b; Luo et al., 2012). Cells were transfected with NF-κB-Luciferase construct containing an NF-κB-response promoter and driving the expression of a luciferase gene and a Renilla luciferase control reporter vector pRL-CMV. After a 24-hour transfection period, cells were lysed, and Firefly and Renilla luciferase activities were assayed using Renilla luciferase activity for normalization. All of the transfection experiments were performed in triplicate and repeated at least three times in independent experiments. Data are expressed as mean±standard error from a representative experiment, and Student's t tests were performed.

Experiment [2] deals with sensory neurons in culture. Format: cell-based, rat. The method, then:
Primary cultures of sensory neurons were harvested and maintained as previously described (Vasko et al., 2005). Briefly, adult male Sprague-Dawley rats (150-175 g; Harlan, Indianapolis, Ind.) were euthanized by CO2 asphyxiation and dorsal root ganglia (DRG) dissected from all spinal levels, transferred to into a collagenase solution (1 mg/ml), incubated for 1 hour at 37° C., then dissociated by mechanical agitation. Approximately 30,000 cells or 60,000 cells were plated into each well of 12-well or 6-well culture plates, respectively. All culture dishes were precoated with poly-D-lysine and laminin. Cells were maintained in F-12 media supplemented with 10% horse serum, 2 mM glutamine, 100 μg/ml Normocin™, 50 μg/ml penicillin, 50 μg/ml streptomycin, 50 μM 5-fluoro-2′-deoxyuridine (Invitrogen), 150 μM uridine, and 30 ng/ml of NGF in 3% CO2 at 37° C. Growth medium was changed every other day. Experiments were performed after cells were maintained in culture for 12-14 days.
For release experiments, cell cultures were washed with HEPES buffer consisting of (in mM) 25 HEPES, 135 NaCl, 3.5 KCl, 2.5 CaCl2, 1 MgCl2, 3.3 D-glucose, and 0.1% bovine serum albumin, pH 7.4 and maintained at 37° C. They then were incubated for successive 10-minute intervals with 0.4 ml of HEPES buffer alone (basal release), with buffer containing 30 nM capsaicin, then with buffer alone (to assess return to basal release). After each incubation, the buffer was removed and the amount of immunoreactive calcitonin-gene related peptide (CGRP) in each sample was measured using radioimmunoassay (RIA) as previously described (Chen et al., 1996). At the end of the release protocol, CGRP is extracted from the cultures and total content measured using RIA.

The test system of experiment [3] is DRG. The experiment in a line: Cisplatin ± APX3330 in neuroblastoma tumor-bearing mice. Format: in vivo. The text has this: Neuroblastoma cells were implanted subcutaneously into the right flanks of 6-wk old male NSG mice and allowed to proliferate until tumor volumes ≥150 mm^3. Mice were then randomized for treatment with cisplatin±APX3330 treatment.

For the compound `CCCCCCCCC/C(=C\C1=C(C)C(=O)C(OC)=C(OC)C1=O)C(=O)O` [APX3330], the IC50 in experiment [1] was determined as 45 µM. Further, the “effect on cisplatin-induced reduction in capsaicin-evoked CGRP release” value in experiment [2] (20 μM for 48 hours prior to and throughout exposure to 10 μM cisplatin) is reported as “abolished the reduction in release”. In addition, the “basal (resting) release or release of CGRP stimulated by 30 nM capsaicin, drug alone” value in experiment [2] (72 hours, E3330 20 μM, APX2009 10 or 20 μM, compared to untreated cells) is listed as “no significant change”. In experiment [3] (in vivo (data not shown)), the “cisplatin or oxaliplatin's tumor-killing efficacy” value is on record as “did not affect cisplatin or oxaliplatin's tumor-killing efficacy in vivo” and the “oxidative DNA damage in DRG neurons” value is “protects DRG neurons from oxidative DNA damage”. Also, the “neurotoxicity induced by systemic administration of cisplatin” value in experiment [3] (tumor-bearing mice) was “attenuated neurotoxicity”.
